Consider 23 molecules from patent US9096571B2, “Picolinamide and pyrimidine-4-carboxamide compounds, process for preparing and pharmaceutical composition comprising the same” (SK CHEMICALS CO., LTD., priority 2010, dated 2015).

Assay [1] addresses T1, human-derived 11β-HSD1 (h11β-HSD1) enzyme (Homo sapiens, UniProt P28845).
T1 construct: expressed in transfected cells; host or cells: HEK-293 cells, transfected with Fugene 6
Nature of the assay: Cell assay on 11β-HSD1 (HEK-293 cells overexpressing h11β-HSD1, cortisone to cortisol, cortisol ELISA). It is filed as cell-based. Particulars: HEK293, HEK-293 cells transfected with h11β-HSD1; for inhibition at 10 µM: 10 μM compound, read-out: hHSD1 inhibiting activity, % inhibition at 10 μM; for inhibition at 100 µM: 100 μM compound, read-out: hHSD1 inhibiting activity, % inhibition at 100 μM. On the procedure: In order to investigate inhibitory effects of the compounds according to the present invention on activity of human-derived 11β-HSD1 (h11β-HSD1) enzyme, the following experiment was performed.
To assay the activity of the 11β-HSD1 enzyme, a recombinant DNA having h11β-HSD1 gene was introduced into an animal cell to induce overexpression of the enzyme [Arampatzis, S. J Mol. Endocrinol. […] First, HEK-293 cells were incubated using a cell incubator until they reached 70-80% confluency on a surface of the container. The recombinant DNA having h11β-HSD1 gene was mixed with Fugene 6, followed by reaction at room temperature for 1 hour. The resulting material was used to treat the cells, and thus DNA was injected into the cells. The next day, the cell supernatant was removed, followed by supplement of fresh medium, and then the cells were further incubated for 24 hours in the cell incubator.
When the cells were incubated at 70-80% confluency, the cells were detached with trypsin, and the number of cells was measured by using a Hemacytometer. The incubated liquid was diluted to contain 20,000 cells/ml, and 100 μl of the diluted liquid was plated onto each well of the 96-well plate. Following incubation for 24 hours, the compound dissolved in DMSO was diluted to 1/100 by the incubated liquid. 100 μl of the resulting compound-diluted liquid was dispensed into each well, and then incubated for 30 minutes.
The quantitative assay of cortisol generated in this reaction was performed by using a system provided from Assay Designs Inc. The resultant enzyme reactant was added to the plate coated with anti-mouse IgG, and then a specific antibody binding to the cortisol and alkaline phosphatase-bound cortisol are together input thereto, followed by reaction at room temperature for 2 hours. The contents in the wells after reaction were thrown away, and then washing was performed with a buffer solution consisting of surfactant and tris-buffered saline three times. After that, a p-nitrophenyl phosphate solution, which is a substrate for the alkaline phosphatase, was input thereto for coloring reaction, followed by reaction for 1 hour, and then the light absorbance at 405 nm was measured by using a plate reader.

The target in assay [2] is T2, 11β-HSD1 (Homo sapiens, UniProt P28845).
T2 construct: host or cells: human subjects in vivo
Particulars: healthy candidates and type 2 diabetic patients, but not the obese; cited from earlier work.

Structures are written as SMILES.

T1 sequence (P28845 whole entry): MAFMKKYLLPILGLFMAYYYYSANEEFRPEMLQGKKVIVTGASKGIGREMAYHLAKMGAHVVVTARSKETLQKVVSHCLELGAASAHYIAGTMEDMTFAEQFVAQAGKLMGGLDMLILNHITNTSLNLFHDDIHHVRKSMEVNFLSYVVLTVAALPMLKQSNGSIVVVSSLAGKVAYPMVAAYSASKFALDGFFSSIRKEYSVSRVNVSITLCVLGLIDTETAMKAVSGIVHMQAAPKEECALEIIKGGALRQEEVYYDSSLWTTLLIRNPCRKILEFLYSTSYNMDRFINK
T2 sequence (P28845 whole entry): as above

Regarding `C[C@@H]1CN(CC(C)(C)O)CCN1c1cccc(C(=O)N[C@H]2C3CC4CC2C[C@](O)(C4)C3)n1` [Example 192, 6-((R)-4-(2-hydroxy-2-methylpropyl)-2-methylpiperazin-1-yl)-N-((E)-5-hydroxyadamantan-2-yl)picolinamide], in assay [1], the inhibition at 10 µM was 41% and the inhibition at 100 µM came out at 85%.
The like results for `C[C@@H]1CN(c2ccc(N)nc2)CCN1c1cccc(C(=O)N[C@H]2C3CC4CC2C[C@](O)(C4)C3)n1` [Example 125, 6-((R)-4-(6-aminopyridin-3-yl)-2-methylpiperazin-1-yl)-N-((E)-5-hydroxyadamantan-2-yl)picolinamide] were, in that order, 48% and 79%.
Turning to `CC1(C)[C@@H](OC(=O)CCC(=O)O)CC[C@]2(C)[C@H]3C(=O)C=C4[C@@H]5C[C@@](C)(C(=O)O)CC[C@]5(C)CC[C@@]4(C)[C@]3(C)CC[C@@H]12` [Carbenoxolone], the “effect on insulin sensitivity” value in assay [2] is “improves insulin sensitivity”.
As for `CNC(=O)c1cc(N2CCN(c3cccc(C(=O)N[C@H]4C5CC6CC4C[C@](O)(C6)C5)n3)[C@H](C)C2)ccc1OC` [Example 151], in assay [1], the inhibition at 10 µM came out at 75% and the inhibition at 100 µM is 85%.
The like results for `O=C(N[C@H]1C2CC3CC1C[C@](O)(C3)C2)c1cccc(N2CCC(c3ccccc3)CC2)n1` [Example 47] were, in that order, 36% and 96%.
For the molecule `COc1ccc(N2CCN(c3nccc(C(=O)N[C@H]4C5CC6CC4C[C@](O)(C6)C5)n3)[C@H](C)C2)c(F)c1` [Example 231], in assay [1], the inhibition at 10 µM was found to be 42% and the inhibition at 100 µM is 78%.
The like results for `C[C@@H]1CN(S(C)(=O)=O)CCN1c1cccc(C(=O)N[C@H]2C3CC4CC2C[C@](O)(C4)C3)n1` [Example 204] were, in that order, 41% and 76%.
For `C[C@@H]1CN(C2CCN(S(C)(=O)=O)CC2)CCN1c1cccc(C(=O)N[C@H]2C3CC4CC2C[C@](O)(C4)C3)n1` [Example 201, N-((E)-5-hydroxyadamantan-2-yl)-6-((R)-2-methyl-4-(1-(methylsulfonyl)piperidin-4-yl)piperazin-1-yl)picolinamide], in that order: 40% and 78%.
For `C[C@H]1CN(c2ccc(S(C)(=O)=O)cc2F)CCN1c1nccc(C(=O)N[C@H]2C3CC4CC2C[C@](O)(C4)C3)n1` [Example 284], in that order: 56% and 86%.
For the molecule `COc1ccc(N2CCN(c3cccc(C(=O)N[C@H]4C5CC6CC4C[C@](O)(C6)C5)n3)[C@H](C)C2)cc1C(N)=O` [Example 150], in assay [1], the inhibition at 10 µM amounted to 76% and the inhibition at 100 µM was determined as 87%.
The like results for `O=C(N[C@H]1C2CC3CC1C[C@](O)(C3)C2)c1cccc(N2CCC(c3ccc(F)cn3)CC2)n1` [Example 97] were, in that order, 58% and 77%.
Consider `Cc1ccc(C2CCN(c3cccc(C(=O)N[C@H]4C5CC6CC4C[C@](O)(C6)C5)n3)CC2)nc1` [Example 98], for which, in assay [1], the inhibition at 10 µM is 38% and the inhibition at 100 µM was determined as 78%.
With `O=C(N[C@H]1C2CC3CC1C[C@](O)(C3)C2)c1cccc(N2CCN(c3ccc(F)cn3)CC2)n1` [Example 87], in assay [1], the inhibition at 10 µM came out at 40% and the inhibition at 100 µM came out at 79%.
Regarding `C[C@@H]1CN(c2ccc(C(C)(C)O)cc2)CCN1c1cccc(C(=O)N[C@H]2C3CC4CC2C[C@](O)(C4)C3)n1` [Example 173, N-((E)-5-hydroxyadamantan-2-yl)-6-((R)-4-(4-(2-hydroxypropan-2-yl)phenyl)-2-methylpiperazin-1-yl)picolinamide], in assay [1], the inhibition at 10 µM was determined as 81% and the inhibition at 100 µM was found to be 87%.
`COc1ccc(N2CCN(c3cccc(C(=O)N[C@H]4C5CC6CC4C[C@](O)(C6)C5)n3)[C@H](C)C2)nc1` [Example 118]: in assay [1], the inhibition at 10 µM came out at 64% and the inhibition at 100 µM came out at 84%.
Turning to `C[C@@H]1CN(c2ccc(OCC(N)=O)c(Cl)c2)CCN1c1cccc(C(=O)N[C@H]2C3CC4CC2C[C@](O)(C4)C3)n1` [Example 190, 6-((R)-4-(4-(2-amino-2-oxoethoxy)-3-chlorophenyl)-2-methylpiperazin-1-yl)-N-((E)-5-hydroxyadamantan-2-yl)picolinamide], in assay [1], the inhibition at 10 µM stood at 76% and the inhibition at 100 µM worked out at 89%.
For `COc1ccc(N2CCN(c3cccc(C(=O)N[C@H]4C5CC6CC4C[C@](O)(C6)C5)n3)[C@H](C)C2)cn1` [Example 119], in that order: 65% and 81%.
The like results for `CC1CCCCN1c1cccc(C(=O)N[C@H]2C3CC4CC2C[C@](O)(C4)C3)n1` (stereo partly drawn) [Example 61] were, in that order, 68% and 83%.
The like results for `CS(=O)(=O)c1ccc(N2CCN(c3cccc(C(=O)N[C@H]4C5CC6CC4C[C@](O)(C6)C5)n3)CC2)cc1` [Example 77, N-((E)-5-hydroxyadamantan-2-yl)-6-(4-(4-(methylsulfonyl)phenyl)piperazin-1-yl)picolinamide] were, in that order, 73% and 87%.
Turning to `O=C(N[C@H]1C2CC3CC1C[C@](O)(C3)C2)c1cccc(N2CCc3ccccc3C2)n1` [Example 60], in assay [1], the inhibition at 10 µM was determined as 68% and the inhibition at 100 µM stood at 82%.
For `C[C@@H]1CN(C2CC2)CCN1c1cccc(C(=O)N[C@H]2C3CC4CC2C[C@](O)(C4)C3)n1` [Example 196, 6-((R)-4-cyclopropyl-2-methylpiperazin-1-yl)-N-((E)-5-hydroxyadamantan-2-yl)picolinamide], in that order: 64% and 86%.
For `COc1ccc(N2CCCN(c3cccc(C(=O)N[C@H]4C5CC6CC4C[C@](O)(C6)C5)n3)CC2)c(F)c1` [Example 124], in that order: 54% and 85%.
For `Cc1ccc(N2CCN(c3cccc(C(=O)N[C@H]4C5CC6CC4C[C@](O)(C6)C5)n3)CC2)nc1` [Example 88], in that order: 40% and 84%.
